# Measured values: patent publication US8093288B2, “Genipin derivatives and uses thereof” (Beth Israel Deaconess Medical Center, priority 2003, dated 2012)
# “Also recorded” adds a separate entry of the source.
# Columns and labels:
# [1] = tested on: WT mice on chow diet, WT mice on high fat diet, ob/ob mice; assay: Serum insulin in vivo after genipin injection in WT (chow, HFD) and ob/ob mice; conditions: WT chow (6 hours fasting, 10 mg/kg), WT HFD (20 hours fasting, 10 mg/kg), ob/ob (20 hours fasting, 20 mg/kg); injected; FIGS. 13A-C
# Method: UCP2-deficient mice have increased serum insulin levels. Genipin inhibits UCP2 activity, and thus should stimulate insulin secretion acutely in vivo. In the present study, the effect of genipin on insulin secretion in vivo was assessed. WT and UCP2 KO mice were fed a chow diet (FIG. 13A), or placed on a high fat diet (HFD) (FIG. 13B) (#D12331, obtained from Research Diets Inc., New Brunswick, N.J.). The fat source was coconut oil and comprised 58% of the total calories. The mice remained on the HFD for 24 weeks. Both WT and KO mice were obese (50-60 g). ob/ob mice (FIG. 13C) were obtained from The Jackson Laboratory. After 6 hours (FIG. 13A) or 20 hours (FIGS. 13B and 13C) of fasting, genipin (10 mg/kg (FIGS. 13A and 13B), or 20 mg/kg (FIG. 13C)) was injected into the mice. Serum insulin levels were measured before and after administration of genipin as indicated.
# [2] = tested on: pancreatic islets from UCP2 knockout mice; assay: Insulin secretion in isolated pancreatic islets from UCP2 knockout mice; assay type: cell-based; conditions: 5.5 mM glucose, 50 nM, 0.5 μM and 5 μM genipin, 37° C. for 60 min, FIG. 4 / FIG. 11B
# Method: (§1) As used or herein, pancreatic islets from wildtype and UCP2 knockout mice were isolated according to a method used for rats (Cawthorn and Chan, Mol. Cell. Endocrinol. 1991, 75:197-204, the entire teachings of which are incorporated herein by reference), except that the total exposure to type XI collagenase (Worthington Biochemical Co., NJ) was 30 min. and the Ficoll gradient was altered to layers of 25%, 23%, 21%, and 11%. Islets were harvested from the 11%-21% interface.
# (§2) Islets were cultured in RPMI medium containing 11.0 mM glucose and supplemented with 1% penicillin-streptomycin. 7.5% fetal bovine serum (all from Gibco/BRL, Burlington, ON), and 10 mM Hepes (Sigma). After culturing for 20-24 hr, the islets were transferred to microcentrifuge tubes, pelleted (800 g for 5 min), and the medium aspirated and replaced with 1.0 mL DME medium containing 1% gelatin and 5.5 mM glucose with no genipin (control), 50 nM genipin, 0.5 μM genipin, and 5 μM genipin. For insulin secretion studies, the three islets were incubated per tube. After incubation at 37° C. for 60 min., the islets were centrifuged. The supernatant was collected and stored at −80° C., and then later assayed for insulin using Rat Insulin ELISA Kit (Cat. No. INSKR020, Crystal Chem., Inc., Chicago, Ill.).
# (§3) FIGS. 11B and 11C show their effects on insulin secretion. Pancreatic islets were isolated from WT or UCP2 knockout (KO) mice. […]
# [3] = tested on: pancreatic islets from wildtype mice; assay: Insulin secretion in isolated pancreatic islets from wildtype mice; assay type: cell-based; conditions: 5.5 mM glucose; 50 nM, 0.5 μM and 5 μM genipin; 37° C. for 60 min; WT islets; FIG. 4 / FIG. 11B
# Method: as §1, §2, §3
# [4] = tested on: WT islets; assay: Glucose-stimulated insulin secretion in WT islets after chronic hyperglycemia; assay type: cell-based, mice; conditions: WT islets after 72 hours at 25 mM glucose; 5 μM genipin acutely added; 5.5, 12.5, 25 mM glucose; FIG. 12A
# Method: Pancreatic islets were isolated from WT (FIG. 12A) or UCP2 KO mice (FIG. 12B) and subjected to chronic incubations at low (5.5 mM) and high glucose (25 mM). In a separate experiment, islets were isolated from ob/ob mice (FIG. 12C). Islets were incubated for a total of 72 hours and washed, and then insulin-secretion studies were performed using three different concentrations of glucose (5.5, 12.5, and 25 mM) with or without 5 μM genipin. Results are means±SEM of four independent experiments (FIGS. 12A and 12B) or eight to twenty repeats of one representative experiment (FIG. 12C). WT islets that were chronically incubated at low glucose released increasing amounts of insulin in response to increasing concentrations of glucose (FIG. 12A, left panel). Following chronic hyperglycemia, islets increased basal insulin release, but were completely unresponsive to glucose stimulation (FIG. 12A, middle panel). […] To assess the role of genipin in hyperglycemia-induced loss of glucose responsiveness, genipin was acutely added into islets during the insulin-release phase of the study.
# [5] = molecular target: T1, UCP2 (Mus musculus, UniProt P70406); assay: Proton leak titration in isolated kidney mitochondria of wildtype mice with superoxide-generating system; assay type: biochemical; conditions: 50 μM genipin with 50 mM xanthine and 0.2 mU/3.5 mL xanthine oxidase, FIG. 2
# T1 construct: Wildtype and UCP2 knockout mice were used for isolation of kidney mitochondria; from tissue; host or cells: kidney mitochondria of wildtype mice
# T1 sequence (P70406 1-309): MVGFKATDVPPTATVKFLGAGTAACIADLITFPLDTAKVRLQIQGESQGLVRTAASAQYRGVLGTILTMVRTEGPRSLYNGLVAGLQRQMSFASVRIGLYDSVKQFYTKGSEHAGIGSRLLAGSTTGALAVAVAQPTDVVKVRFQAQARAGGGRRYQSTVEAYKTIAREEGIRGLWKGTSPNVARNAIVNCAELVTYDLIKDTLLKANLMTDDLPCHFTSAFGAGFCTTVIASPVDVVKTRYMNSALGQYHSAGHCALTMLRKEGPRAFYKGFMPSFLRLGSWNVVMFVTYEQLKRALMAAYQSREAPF
structure (smiles),measurement,setting,value
COC(=O)C1=CO[C@@H](O)[C@@H]2C(CO)=CC[C@H]12 [genipin],serum insulin levels,[1],can increase insulin levels in all three animal models
same,insulin secretion,[2],does not increase insulin secretion; also recorded: no effect on insulin secretion
same,insulin secretion,[3],increases insulin secretion in a dose-dependent manner
same,glucose-stimulated insulin secretion (GSIS),[4],prevented the hyperglycemia-induced block in GSIS
same,rate of proton leak as a function of mitochondrial membrane potential,[5],proton leak occurred at nearly the same mitochondria membrane potential as in the control
